ChEMBL document CHEMBL5291721, “A preclinical secondary pharmacology resource illuminates target-adverse drug reaction associations of marketed drugs” (Nat Commun, 2023)
Blank lines part the entries; values can stand above or below the compound they belong to.

Columns and labels:
[1] = molecular target: T1, Peroxisome proliferator-activated receptor gamma (Homo sapiens, UniProt P37231); assay type: functional
T1 sequence (P37231 whole entry): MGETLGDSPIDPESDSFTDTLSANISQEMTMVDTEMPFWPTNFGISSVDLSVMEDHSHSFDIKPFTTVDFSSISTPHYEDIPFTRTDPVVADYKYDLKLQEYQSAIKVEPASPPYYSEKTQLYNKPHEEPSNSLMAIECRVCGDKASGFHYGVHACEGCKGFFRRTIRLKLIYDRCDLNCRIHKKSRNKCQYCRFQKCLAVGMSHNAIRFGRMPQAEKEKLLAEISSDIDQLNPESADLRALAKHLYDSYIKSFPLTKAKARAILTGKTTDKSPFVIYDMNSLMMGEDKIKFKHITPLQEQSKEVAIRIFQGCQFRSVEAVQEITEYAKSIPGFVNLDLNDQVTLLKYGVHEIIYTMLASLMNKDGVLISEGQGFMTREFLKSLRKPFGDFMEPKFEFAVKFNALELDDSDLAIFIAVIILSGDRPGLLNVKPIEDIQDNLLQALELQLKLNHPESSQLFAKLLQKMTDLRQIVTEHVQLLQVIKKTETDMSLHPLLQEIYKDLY

[2] = molecular target: T1, Peroxisome proliferator-activated receptor gamma; assay type: functional; remark: listed apart in the source
[3] = molecular target: T2, Gamma-aminobutyric acid receptor subunit alpha-1/alpha-2/beta-2/gamma-2 (Homo sapiens, UniProt P14867+P18507+P47869+P47870); assay type: functional, cell-based
[4] = molecular target: T2, Gamma-aminobutyric acid receptor subunit alpha-1/alpha-2/beta-2/gamma-2; assay type: functional, cell-based; remark: listed apart in the source
[5] = molecular target: T3, Muscarinic acetylcholine receptor M2 (Homo sapiens, UniProt P08172)
T3 sequence (P08172 whole entry): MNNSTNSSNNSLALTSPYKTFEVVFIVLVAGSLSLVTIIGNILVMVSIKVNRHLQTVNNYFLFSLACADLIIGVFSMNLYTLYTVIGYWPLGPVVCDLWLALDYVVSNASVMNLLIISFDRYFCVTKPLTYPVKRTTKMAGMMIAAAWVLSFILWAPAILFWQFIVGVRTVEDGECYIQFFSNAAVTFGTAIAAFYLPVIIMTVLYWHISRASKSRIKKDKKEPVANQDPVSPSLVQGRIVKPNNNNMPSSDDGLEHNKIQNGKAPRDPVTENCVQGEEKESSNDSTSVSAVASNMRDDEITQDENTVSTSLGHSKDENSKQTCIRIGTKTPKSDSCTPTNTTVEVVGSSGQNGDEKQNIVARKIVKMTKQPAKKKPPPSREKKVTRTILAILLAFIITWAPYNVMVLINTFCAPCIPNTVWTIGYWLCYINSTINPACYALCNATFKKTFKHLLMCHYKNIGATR

[6] = molecular target: T4, Histamine H1 receptor (Homo sapiens, UniProt P35367); assay type: functional, cell-based
[7] = molecular target: T4, Histamine H1 receptor; assay type: functional, cell-based; remark: listed apart in the source
[8] = molecular target: T5, Alpha-1A adrenergic receptor (Homo sapiens, UniProt P35348)
T5 sequence (P35348 whole entry): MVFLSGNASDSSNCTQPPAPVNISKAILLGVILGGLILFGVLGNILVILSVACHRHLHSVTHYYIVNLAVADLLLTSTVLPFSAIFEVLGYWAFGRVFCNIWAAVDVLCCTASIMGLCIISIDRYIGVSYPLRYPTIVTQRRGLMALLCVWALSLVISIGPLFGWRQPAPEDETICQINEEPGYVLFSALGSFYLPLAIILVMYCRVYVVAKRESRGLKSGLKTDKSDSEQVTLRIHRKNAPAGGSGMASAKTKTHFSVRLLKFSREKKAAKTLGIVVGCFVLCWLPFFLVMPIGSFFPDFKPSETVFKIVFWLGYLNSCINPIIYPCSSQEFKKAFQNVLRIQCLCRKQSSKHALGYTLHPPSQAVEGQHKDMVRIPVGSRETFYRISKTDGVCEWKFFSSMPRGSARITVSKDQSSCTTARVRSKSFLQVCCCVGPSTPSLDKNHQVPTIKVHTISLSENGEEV

[9] = molecular target: T6, Muscarinic acetylcholine receptor M1 (Homo sapiens, UniProt P11229)
T6 sequence (P11229 whole entry): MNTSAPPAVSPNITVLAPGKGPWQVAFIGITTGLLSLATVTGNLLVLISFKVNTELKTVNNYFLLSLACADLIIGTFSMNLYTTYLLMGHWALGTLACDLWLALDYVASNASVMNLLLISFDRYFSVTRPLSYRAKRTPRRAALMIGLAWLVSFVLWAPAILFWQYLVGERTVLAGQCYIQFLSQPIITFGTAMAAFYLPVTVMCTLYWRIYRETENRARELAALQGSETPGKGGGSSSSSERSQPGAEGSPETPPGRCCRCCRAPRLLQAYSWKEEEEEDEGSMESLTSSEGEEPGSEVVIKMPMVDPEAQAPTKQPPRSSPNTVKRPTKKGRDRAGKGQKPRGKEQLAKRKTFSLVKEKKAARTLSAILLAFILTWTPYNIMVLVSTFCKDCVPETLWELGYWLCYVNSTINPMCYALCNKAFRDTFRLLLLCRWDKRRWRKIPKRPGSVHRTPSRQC

[10] = molecular target: D(1A) dopamine receptor (Homo sapiens, UniProt P21728)
[11] = molecular target: Beta-3 adrenergic receptor (Homo sapiens, UniProt P13945)
[12] = molecular target: Voltage-dependent N-type calcium channel subunit alpha-1B (Rattus norvegicus, UniProt Q02294); assay type: functional
[13] = molecular target: T7, 5-hydroxytryptamine receptor 1A (Homo sapiens, UniProt P08908)
T7 sequence (P08908 whole entry): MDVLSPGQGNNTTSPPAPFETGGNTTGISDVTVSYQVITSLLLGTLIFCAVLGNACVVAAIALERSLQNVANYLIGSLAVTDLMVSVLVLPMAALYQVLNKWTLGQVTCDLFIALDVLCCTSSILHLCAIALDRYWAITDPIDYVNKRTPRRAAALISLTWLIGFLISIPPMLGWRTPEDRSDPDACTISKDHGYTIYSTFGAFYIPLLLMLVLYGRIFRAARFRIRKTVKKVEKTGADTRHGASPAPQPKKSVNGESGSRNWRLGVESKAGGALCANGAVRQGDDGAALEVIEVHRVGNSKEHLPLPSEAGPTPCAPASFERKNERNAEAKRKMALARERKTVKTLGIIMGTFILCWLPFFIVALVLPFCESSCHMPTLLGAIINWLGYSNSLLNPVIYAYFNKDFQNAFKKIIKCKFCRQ

[14] = molecular target: 5-hydroxytryptamine receptor 2B (Homo sapiens, UniProt P41595)
Also: assay procedure not described here.

T4 sequence (P35367 whole entry): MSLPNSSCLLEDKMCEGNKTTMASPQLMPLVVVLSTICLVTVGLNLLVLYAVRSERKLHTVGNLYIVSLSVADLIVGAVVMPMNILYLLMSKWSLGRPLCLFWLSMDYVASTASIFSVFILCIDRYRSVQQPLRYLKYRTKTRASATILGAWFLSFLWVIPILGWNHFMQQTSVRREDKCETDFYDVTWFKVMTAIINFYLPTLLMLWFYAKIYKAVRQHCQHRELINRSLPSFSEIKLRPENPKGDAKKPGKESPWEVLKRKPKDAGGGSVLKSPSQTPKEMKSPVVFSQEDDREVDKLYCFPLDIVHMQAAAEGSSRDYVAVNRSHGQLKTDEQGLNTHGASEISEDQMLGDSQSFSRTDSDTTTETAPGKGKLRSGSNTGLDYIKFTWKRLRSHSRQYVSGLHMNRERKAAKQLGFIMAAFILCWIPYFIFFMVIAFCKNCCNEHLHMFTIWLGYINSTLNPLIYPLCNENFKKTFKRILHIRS
Sequence of D(1A) dopamine receptor (P21728 whole entry): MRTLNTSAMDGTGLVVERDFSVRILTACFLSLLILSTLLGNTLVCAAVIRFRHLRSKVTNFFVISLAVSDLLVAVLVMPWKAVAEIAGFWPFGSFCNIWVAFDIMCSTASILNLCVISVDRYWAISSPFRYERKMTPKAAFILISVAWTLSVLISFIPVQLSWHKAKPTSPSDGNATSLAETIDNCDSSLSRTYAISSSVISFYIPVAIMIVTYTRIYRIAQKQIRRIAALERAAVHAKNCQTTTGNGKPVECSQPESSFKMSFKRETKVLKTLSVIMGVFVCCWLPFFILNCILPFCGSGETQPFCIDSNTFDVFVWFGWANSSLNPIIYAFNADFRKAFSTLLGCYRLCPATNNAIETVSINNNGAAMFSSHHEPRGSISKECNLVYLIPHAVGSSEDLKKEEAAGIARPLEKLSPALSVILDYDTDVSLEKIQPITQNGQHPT
T2 sequence (P14867 whole entry): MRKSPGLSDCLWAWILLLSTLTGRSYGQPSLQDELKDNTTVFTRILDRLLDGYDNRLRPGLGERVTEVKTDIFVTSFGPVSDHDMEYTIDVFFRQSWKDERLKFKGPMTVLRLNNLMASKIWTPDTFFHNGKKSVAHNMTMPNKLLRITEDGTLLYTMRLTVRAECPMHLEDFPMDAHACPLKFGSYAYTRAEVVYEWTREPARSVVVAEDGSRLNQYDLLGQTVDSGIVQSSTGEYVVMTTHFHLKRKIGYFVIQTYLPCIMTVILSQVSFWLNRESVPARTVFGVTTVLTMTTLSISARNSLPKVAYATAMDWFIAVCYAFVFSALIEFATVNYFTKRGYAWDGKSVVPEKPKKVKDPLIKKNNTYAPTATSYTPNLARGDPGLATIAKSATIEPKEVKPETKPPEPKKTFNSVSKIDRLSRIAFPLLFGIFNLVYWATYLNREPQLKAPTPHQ
T2 sequence (P47870 whole entry): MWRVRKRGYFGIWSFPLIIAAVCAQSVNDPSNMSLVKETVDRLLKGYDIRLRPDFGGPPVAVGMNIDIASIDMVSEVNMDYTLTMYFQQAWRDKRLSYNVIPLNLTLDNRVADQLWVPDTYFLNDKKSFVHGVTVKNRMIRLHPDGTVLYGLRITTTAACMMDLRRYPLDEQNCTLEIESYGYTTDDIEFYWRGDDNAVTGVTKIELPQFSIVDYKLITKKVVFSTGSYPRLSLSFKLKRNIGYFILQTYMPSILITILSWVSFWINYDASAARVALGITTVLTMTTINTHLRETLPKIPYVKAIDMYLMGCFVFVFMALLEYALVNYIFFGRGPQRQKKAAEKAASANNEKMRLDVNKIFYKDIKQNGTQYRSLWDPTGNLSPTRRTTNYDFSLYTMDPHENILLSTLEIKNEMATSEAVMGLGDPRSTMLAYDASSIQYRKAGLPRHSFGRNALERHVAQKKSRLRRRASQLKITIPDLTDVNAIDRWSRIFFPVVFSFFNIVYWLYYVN
T2 sequence (P18507 whole entry): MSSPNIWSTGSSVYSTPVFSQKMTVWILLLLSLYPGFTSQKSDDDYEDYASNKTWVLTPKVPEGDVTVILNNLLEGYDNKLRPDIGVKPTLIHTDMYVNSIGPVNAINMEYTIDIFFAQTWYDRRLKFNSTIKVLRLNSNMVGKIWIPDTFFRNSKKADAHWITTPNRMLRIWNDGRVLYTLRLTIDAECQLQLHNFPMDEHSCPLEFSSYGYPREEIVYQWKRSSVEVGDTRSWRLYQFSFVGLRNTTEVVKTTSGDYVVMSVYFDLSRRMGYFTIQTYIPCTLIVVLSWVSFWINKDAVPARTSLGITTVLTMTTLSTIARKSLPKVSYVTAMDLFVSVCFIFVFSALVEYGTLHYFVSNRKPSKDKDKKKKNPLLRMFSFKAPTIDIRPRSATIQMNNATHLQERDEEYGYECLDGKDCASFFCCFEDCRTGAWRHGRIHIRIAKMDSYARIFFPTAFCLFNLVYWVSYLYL
T2 sequence (P47869 whole entry): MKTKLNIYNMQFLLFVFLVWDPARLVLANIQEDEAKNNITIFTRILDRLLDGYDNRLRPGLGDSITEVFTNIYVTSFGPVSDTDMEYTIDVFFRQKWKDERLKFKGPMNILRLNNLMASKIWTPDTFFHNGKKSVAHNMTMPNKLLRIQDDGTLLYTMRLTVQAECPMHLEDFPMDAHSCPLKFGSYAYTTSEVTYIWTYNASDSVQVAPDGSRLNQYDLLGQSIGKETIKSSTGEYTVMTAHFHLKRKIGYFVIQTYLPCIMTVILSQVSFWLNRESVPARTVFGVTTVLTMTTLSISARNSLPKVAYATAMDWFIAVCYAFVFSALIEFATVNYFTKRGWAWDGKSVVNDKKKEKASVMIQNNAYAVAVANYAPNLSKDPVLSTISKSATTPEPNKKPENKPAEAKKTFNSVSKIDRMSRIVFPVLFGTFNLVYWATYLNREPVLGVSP
Sequence of Beta-3 adrenergic receptor (P13945 whole entry): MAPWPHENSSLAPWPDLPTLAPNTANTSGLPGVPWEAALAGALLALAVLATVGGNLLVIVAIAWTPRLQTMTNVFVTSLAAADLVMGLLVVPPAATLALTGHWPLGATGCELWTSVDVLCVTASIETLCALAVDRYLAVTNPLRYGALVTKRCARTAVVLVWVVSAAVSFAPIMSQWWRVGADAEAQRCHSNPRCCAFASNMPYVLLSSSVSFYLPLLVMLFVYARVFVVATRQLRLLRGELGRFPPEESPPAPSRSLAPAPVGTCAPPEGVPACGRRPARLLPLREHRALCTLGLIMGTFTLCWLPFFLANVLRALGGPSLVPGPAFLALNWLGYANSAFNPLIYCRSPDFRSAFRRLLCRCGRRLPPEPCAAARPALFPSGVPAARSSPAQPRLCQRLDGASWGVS
Sequence of 5-hydroxytryptamine receptor 2B (P41595 whole entry): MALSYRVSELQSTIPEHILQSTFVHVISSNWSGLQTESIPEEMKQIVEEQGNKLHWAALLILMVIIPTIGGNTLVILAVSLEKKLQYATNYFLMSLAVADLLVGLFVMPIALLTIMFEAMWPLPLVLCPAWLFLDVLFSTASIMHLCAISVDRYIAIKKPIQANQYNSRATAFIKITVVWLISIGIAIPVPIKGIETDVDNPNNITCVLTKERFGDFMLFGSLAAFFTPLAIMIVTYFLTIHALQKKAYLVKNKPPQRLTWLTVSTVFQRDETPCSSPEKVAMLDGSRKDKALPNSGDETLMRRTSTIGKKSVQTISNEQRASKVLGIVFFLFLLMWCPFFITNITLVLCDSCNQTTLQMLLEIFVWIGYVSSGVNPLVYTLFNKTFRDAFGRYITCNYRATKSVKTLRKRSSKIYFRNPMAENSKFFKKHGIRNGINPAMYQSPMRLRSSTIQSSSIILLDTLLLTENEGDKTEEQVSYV

- AC50 [1]: > 30 µM
- AC50 [2]: > 30 µM
Compound: CC(C)(Oc1ccc(Cl)cc1)C(=O)OCCOC(=O)c1cccnc1 [ETOFIBRATE]

Compound: COc1ccc(C(=O)c2ccccc2)c(O)c1 [OXYBENZONE]
- AC50 [3]: > 30 µM
- AC50 [4]: > 30 µM

- AC50 [5]: 0.265 µM
Compound: CCC(=O)c1ccc2c(c1)N(CC(C)N(C)C)c1ccccc1S2 (stereo not given) [PROPIOMAZINE]

Compound: CCn1c(=O)c2c(nc(/C=C/c3ccc(OC)c(OC)c3)n2C)n(CC)c1=O [ISTRADEFYLLINE]
- AC50 [6]: > 30 µM
- AC50 [7]: > 30 µM

Compound: CSCC[C@H](N)C(=O)O [METHIONINE]
- AC50 [8]: > 30 µM
- AC50 [9]: > 30 µM
- AC50 [10]: > 30 µM

Compound: CC(=O)Nc1ccc(/C=N/NC(N)=S)cc1 [AMITHIOZONE]
- AC50 [8]: > 30 µM
- AC50 [9]: > 30 µM
- AC50 [10]: > 30 µM

- AC50 [11]: > 30 µM
- AC50 [12]: > 10 µM
- AC50 [13]: > 10 µM
- AC50 [5]: > 10 µM
Compound: C[C@]12C=CC(=O)C=C1CC[C@@H]1[C@@H]2[C@@H](O)C[C@@]2(C)[C@H]1CC[C@]2(O)C(=O)CO [PREDNISOLONE]

Compound: Cc1ccc(O)c([C@H](CCN(C(C)C)C(C)C)c2ccccc2)c1 [TOLTERODINE]
- AC50 [11]: > 30 µM
- AC50 [12]: > 10 µM
- AC50 [14]: > 10 µM
- AC50 [13]: > 10 µM

Compound: OC(CN1CCCCC1)c1cc(-c2ccccc2)on1 (stereo not given) [PERISOXAL]
- AC50 [8]: 3.86 µM
- AC50 [9]: 20.4 µM
- AC50 [10]: > 30 µM

- AC50 [4]: > 30 µM
- AC50 [6]: > 30 µM
- AC50 [7]: > 30 µM
- AC50 [1]: > 30 µM
- AC50 [2]: > 30 µM
Compound: C[C@]12C=CC(=O)C=C1C(Cl)=C[C@@H]1[C@@H]2[C@@H](O)C[C@@]2(C)[C@H]1CC[C@]2(O)C(=O)CO [CLOPREDNOL]

Compound: N=C(N)NC(=O)c1nc(Cl)c(N)nc1N [AMILORIDE]
- AC50 [11]: > 30 µM
- AC50 [12]: > 10 µM
- AC50 [14]: 5.63 µM
- AC50 [13]: > 10 µM
- AC50 [5]: > 10 µM

- AC50 [14]: > 30 µM
Compound: C[C@]12CCC(=O)C=C1[C@@H]1C[C@@H]1[C@H]1[C@@H]3[C@@H]4C[C@@H]4[C@@]4(CCC(=O)O4)[C@@]3(C)CC[C@@H]12 [DROSPIRENONE]

Compound: CC(C)(C)NCC(O)COc1ccccc1C#N (stereo not given) [BUNITROLOL]
- AC50 [3]: > 30 µM
- AC50 [4]: > 30 µM

Compound: C[C@@H](O)[C@H]1C(=O)N2C(C(=O)O)=C(S[C@@H]3CN[C@H](C(=O)Nc4cccc(C(=O)O)c4)C3)[C@H](C)[C@H]12
- AC50 [8]: > 30 µM
- AC50 [9]: > 30 µM
- AC50 [10]: > 30 µM

Compound: Oc1cc(Cl)ccc1Oc1ccc(Cl)cc1Cl [TRICLOSAN]
- AC50 [3]: > 30 µM
- AC50 [4]: > 30 µM
- AC50 [6]: > 30 µM
- AC50 [7]: > 30 µM

Compound: COc1cccc2c1C(=O)c1c(O)c3c(c(O)c1C2=O)C[C@@](O)(C(=O)CO)C[C@@H]3O[C@H]1C[C@H](N)[C@H](O)[C@H](C)O1 [DOXORUBICIN]
- AC50 [12]: > 10 µM
- AC50 [1]: > 30 µM
- AC50 [2]: > 10 µM
- AC50 [13]: > 10 µM

Compound: CC(=O)OC1CN2CCC1CC2 (stereo not given) [ACECLIDINE]
- AC50 [8]: > 30 µM
- AC50 [10]: > 30 µM
